Data as given in ChEMBL document CHEMBL5113400, “Design, synthesis, and biological evaluation of trizole-based heteroaromatic derivatives as Bcr-Abl kinase inhibitors” (Eur J Med Chem, 2022).
Calls of active or inactive are those of the source. No cut-off for these calls is given here.

Assays:
K562 [1] = test: Induction of apoptosis in human K562 cells assessed as late apoptotic cells at 10 uM incubated for 48 hrs by Annexin V-FITC/PI staining based flow cytometry analysis (Rvb= 14.66%); assay type: functional
[2] = biological target: T1, Tyrosine-protein kinase ITK/TSK (Homo sapiens) (UniProt Q08881); test: Inhibition of recombinant human ITK at 10 uM for 10 mins followed by substrate addition in presence of ATP and measured after 60 mins by HTRF assay; settings: time 70.0 min
T1 sequence (whole entry): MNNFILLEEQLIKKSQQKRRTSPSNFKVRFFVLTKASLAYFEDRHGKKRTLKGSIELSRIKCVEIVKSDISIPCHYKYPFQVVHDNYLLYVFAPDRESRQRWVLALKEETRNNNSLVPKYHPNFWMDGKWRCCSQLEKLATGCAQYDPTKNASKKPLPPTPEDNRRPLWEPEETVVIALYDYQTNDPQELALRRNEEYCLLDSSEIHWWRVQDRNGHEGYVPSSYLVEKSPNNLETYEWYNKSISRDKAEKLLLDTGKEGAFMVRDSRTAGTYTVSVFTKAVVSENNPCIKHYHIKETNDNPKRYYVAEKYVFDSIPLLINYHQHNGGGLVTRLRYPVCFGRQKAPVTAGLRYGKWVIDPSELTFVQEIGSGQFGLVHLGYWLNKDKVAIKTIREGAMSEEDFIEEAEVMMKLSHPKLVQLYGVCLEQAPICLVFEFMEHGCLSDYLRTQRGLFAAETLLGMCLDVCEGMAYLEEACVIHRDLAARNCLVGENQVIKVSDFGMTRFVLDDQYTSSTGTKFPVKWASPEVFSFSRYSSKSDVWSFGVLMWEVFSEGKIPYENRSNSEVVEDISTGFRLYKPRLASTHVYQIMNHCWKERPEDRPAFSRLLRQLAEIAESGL

[3] = biological target: T1, Tyrosine-protein kinase ITK/TSK (Homo sapiens); test: Inhibition of recombinant human ITK at 10 uM for 10 mins followed by substrate addition in presence of ATP and measured after 100 mins by ADP-Glo kinase assay; settings: time 110.0 min
K-562R = test: Antiproliferative activity against human K-562R cells expressing Bcr-Abl T315I mutant assessed as inhibition of cell growth incubated for 48 hrs by MTT assay; assay type: functional, cell-based
BaF3 [4] = test: Antiproliferative activity against mouse BaF3 cells expressing Bcr-Abl T315I mutant assessed as inhibition of cell growth incubated for 72 hrs by CellTiter-Glo luminescent assay; assay type: functional, cell-based; settings: BaF3, 72 h
K562 [5] = test: Induction of apoptosis in human K562 cells assessed as necrotic cells at 1 uM incubated for 48 hrs by Annexin V-FITC/PI staining based flow cytometry analysis (Rvb= 0.09%); assay type: functional
[6] = biological target: Dual specificity protein kinase CLK1 (Homo sapiens) (UniProt P49759); test: Inhibition of recombinant human CLK1 at 10 uM for 10 mins followed by substrate addition in presence of ATP and measured after 100 mins by ADP-Glo kinase assay; settings: time 110.0 min
[7] = biological target: BDNF/NT-3 growth factors receptor (Homo sapiens) (UniProt Q16620); test: Inhibition of recombinant human TRKB at 10 uM for 10 mins followed by substrate addition in presence of ATP and measured after 60 mins by HTRF assay; settings: time 70.0 min
K562 [8] = test: Induction of cell cycle arrest in human K562 cells assessed as reduction in G0/G1 phase at 1 to 10 uM incubated for 48 hrs by PI staining based flow cytometry; assay type: functional; settings: dose 1-10 µM
K562 [9] = test: Induction of apoptosis in human K562 cells assessed as viable cells at 1 uM incubated for 48 hrs by Annexin V-FITC/PI staining based flow cytometry analysis (Rvb=80.89%); assay type: functional; settings: read-out: Activity
K562/Adr = test: Antiproliferative activity against human Adriamycin-resistant K562/Adr cells assessed as inhibition of cell growth incubated for 48 hrs by MTT assay; assay type: functional, cell-based
[10] = biological target: Tyrosine-protein kinase receptor UFO (Homo sapiens) (UniProt P30530); test: Inhibition of recombinant human AXL at 10 uM for 10 mins followed by substrate addition in presence of ATP and measured after 60 mins by HTRF assay; settings: time 70.0 min
K562 [11] = test: Antiproliferative activity against human K562 cells assessed as inhibition of cell growth incubated for 48 hrs by MTT assay; assay type: functional, cell-based; settings: K562, 48 h
K562 [12] = test: Induction of apoptosis in human K562 cells assessed as necrotic cells at 10 uM incubated for 48 hrs by Annexin V-FITC/PI staining based flow cytometry analysis (Rvb= 0.09%); assay type: functional
[13] = biological target: Dual specificity protein kinase CLK1 (Homo sapiens) (UniProt P49759); test: Inhibition of recombinant human CLK1 at 10 uM for 10 mins followed by substrate addition in presence of ATP and measured after 60 mins by HTRF assay; settings: time 70.0 min
Bcr/Abl fusion protein [14] = biological target: Bcr/Abl fusion protein (Homo sapiens, UniProt P00519); test: Inhibition of wild type Bcr-Abl (unknown origin) incubated for 1 hr in presence of ATP by ADP-Glo kinase assay; assay type: protein assay
Bcr/Abl fusion protein [15] = biological target: Bcr/Abl fusion protein (Homo sapiens, UniProt P00519, T315I); test: Inhibition of Bcr-Abl T315I mutant (unknown origin) incubated for 1 hr in presence of ATP by ADP-Glo kinase assay; assay type: protein assay
EA.hy 926 = test: Cytotoxicity against human EA.hy 926 cells assessed as inhibition of cell growth upto 100 uM incubated for 48 hrs by MTT assay; assay type: toxicity, cell-based; settings: ea.hy 926, 48 h
K562 [16] = test: Induction of apoptosis in human K562 cells assessed as viable cells at 5 uM incubated for 48 hrs by Annexin V-FITC/PI staining based flow cytometry analysis (Rvb=80.89%); assay type: functional; settings: read-out: Activity
K562 [17] = test: Induction of apoptosis in human K562 cells assessed as late apoptotic cells at 5 uM incubated for 48 hrs by Annexin V-FITC/PI staining based flow cytometry analysis (Rvb= 14.66%); assay type: functional
BaF3 [18] = test: Antiproliferative activity against mouse BaF3 cells assessed as inhibition of cell growth incubated for 72 hrs by CellTiter-Glo luminescent assay; assay type: functional, cell-based; settings: BaF3, 72 h

Sequence of Dual specificity protein kinase CLK1 (Homo sapiens) (P49759 whole entry, looked up, the tested form may be a part): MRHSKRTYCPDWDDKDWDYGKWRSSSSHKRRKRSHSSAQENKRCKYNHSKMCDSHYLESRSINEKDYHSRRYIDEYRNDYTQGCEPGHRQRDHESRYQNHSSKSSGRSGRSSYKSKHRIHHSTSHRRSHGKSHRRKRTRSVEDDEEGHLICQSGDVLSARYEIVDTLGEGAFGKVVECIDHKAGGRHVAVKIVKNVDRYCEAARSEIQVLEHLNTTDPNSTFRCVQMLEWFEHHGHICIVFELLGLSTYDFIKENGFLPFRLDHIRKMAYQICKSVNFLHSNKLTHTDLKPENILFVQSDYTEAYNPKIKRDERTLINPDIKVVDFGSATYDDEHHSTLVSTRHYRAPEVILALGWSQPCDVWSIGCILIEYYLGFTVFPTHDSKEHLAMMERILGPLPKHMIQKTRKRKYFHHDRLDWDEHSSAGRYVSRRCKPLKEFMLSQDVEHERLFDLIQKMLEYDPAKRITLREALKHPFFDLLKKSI
Sequence of BDNF/NT-3 growth factors receptor (Homo sapiens) (Q16620 32-822 limits assumed): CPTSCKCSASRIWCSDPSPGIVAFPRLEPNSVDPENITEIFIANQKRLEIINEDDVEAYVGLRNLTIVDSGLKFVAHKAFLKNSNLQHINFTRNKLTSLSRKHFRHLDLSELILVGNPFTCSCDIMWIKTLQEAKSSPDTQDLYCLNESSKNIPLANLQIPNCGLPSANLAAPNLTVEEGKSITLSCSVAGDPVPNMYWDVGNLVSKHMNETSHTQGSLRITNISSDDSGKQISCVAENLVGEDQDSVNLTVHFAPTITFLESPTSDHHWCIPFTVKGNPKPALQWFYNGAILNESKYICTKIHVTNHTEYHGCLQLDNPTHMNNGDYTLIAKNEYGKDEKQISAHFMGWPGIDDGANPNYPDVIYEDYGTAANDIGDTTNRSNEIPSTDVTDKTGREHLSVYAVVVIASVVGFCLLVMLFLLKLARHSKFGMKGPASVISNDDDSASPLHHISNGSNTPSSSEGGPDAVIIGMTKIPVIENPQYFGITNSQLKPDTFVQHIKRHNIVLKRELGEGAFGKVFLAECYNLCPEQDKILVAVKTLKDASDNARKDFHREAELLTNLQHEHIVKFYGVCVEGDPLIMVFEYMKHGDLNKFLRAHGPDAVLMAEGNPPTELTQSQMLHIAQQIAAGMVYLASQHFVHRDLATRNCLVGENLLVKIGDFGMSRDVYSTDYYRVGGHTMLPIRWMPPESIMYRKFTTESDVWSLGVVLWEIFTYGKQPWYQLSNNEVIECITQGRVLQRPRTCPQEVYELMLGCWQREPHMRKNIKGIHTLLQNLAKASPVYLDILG
Sequence of Tyrosine-protein kinase receptor UFO (Homo sapiens) (P30530 whole entry): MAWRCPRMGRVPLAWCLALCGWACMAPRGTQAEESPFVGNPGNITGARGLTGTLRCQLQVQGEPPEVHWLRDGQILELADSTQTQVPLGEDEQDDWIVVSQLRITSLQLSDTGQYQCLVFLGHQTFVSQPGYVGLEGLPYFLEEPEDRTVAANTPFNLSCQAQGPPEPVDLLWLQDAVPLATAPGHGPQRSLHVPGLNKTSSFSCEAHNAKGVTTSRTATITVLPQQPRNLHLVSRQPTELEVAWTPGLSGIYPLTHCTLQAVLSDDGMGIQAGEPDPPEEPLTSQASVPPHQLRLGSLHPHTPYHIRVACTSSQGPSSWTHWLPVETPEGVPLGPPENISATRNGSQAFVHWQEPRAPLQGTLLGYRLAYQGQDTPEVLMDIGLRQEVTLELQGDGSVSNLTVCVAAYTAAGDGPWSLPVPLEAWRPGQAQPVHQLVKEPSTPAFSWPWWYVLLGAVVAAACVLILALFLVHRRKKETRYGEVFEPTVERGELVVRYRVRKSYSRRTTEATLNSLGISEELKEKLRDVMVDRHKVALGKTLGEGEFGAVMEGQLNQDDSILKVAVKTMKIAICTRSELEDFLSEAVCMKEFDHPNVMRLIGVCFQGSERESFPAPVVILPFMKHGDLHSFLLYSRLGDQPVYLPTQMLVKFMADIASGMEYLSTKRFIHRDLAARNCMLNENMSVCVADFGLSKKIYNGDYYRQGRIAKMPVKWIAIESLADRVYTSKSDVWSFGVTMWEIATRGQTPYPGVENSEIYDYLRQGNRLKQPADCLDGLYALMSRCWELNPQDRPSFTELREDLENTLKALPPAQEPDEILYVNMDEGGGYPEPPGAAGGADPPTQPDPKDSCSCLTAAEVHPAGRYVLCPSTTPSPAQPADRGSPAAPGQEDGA

inhibition [2]: 41.1% | inhibition [3]: 41.1% | IC50 (K-562R): 1910 nM | IC50 (BaF3 [4]): 672 nM | inhibition [6]: 44.2% | inhibition [7]: 54.3% | IC50 (K562/Adr): 2440 nM | inhibition [10]: 56.4% | IC50 (K562 [11]): 740 nM | inhibition [13]: 44.2% | IC50 (Bcr/Abl fusion protein [14]): 0.6 nM | IC50 (Bcr/Abl fusion protein [15]): 190 nM | IC50 (BaF3 [18]): > 20000 nM
Compound: O=C(Nc1nc2ccc(-c3cn([C@@H]4CN[C@H](C(=O)Nc5ccc(Cl)cc5Cl)C4)nn3)nc2s1)C1CC1
Activity (K562 [1]): 43.12% | Activity (K562 [5]): 0.06% | Activity (K562 [8]): Active | viability at 1 µM (K562 [9]): 76.9% | Activity (K562 [12]): 0.01% | Activity (EA.hy 926): Non-Toxic | viability at 5 µM (K562 [16]): 66.5% | Activity (K562 [17]): 29.63%
